Data published in patent US6204026A, “Detection of M. tuberculosis complex via reverse transcriptase SDA” (priority 1997, dated 2001).

System: M. tuberculosis
Format: cell-based, Mycobacterium tuberculosis

SMILES | time of exposure within which changes in α-antigen mRNA were detected [h] | decline in detectable α-antigen mRNA, compared with INH-treated cultures
NNC(=O)c1ccncc1 [INH, Isoniazid] | ≤ 24 | 
CO[C@H]1/C=C/O[C@@]2(C)Oc3c(C)c(O)c4c(O)c(c(/C=N/N5CCN(C)CC5)c(O)c4c3C2=O)NC(=O)/C(C)=C\C=C\[C@H](C)[C@H](O)[C@@H](C)[C@@H](O)[C@@H](C)[C@H](OC(C)=O)[C@@H]1C [RIF, rifampin] | ≤ 24 | more rapid
